In article PMC4920374 (Bioorganic & medicinal chemistry, 2016):
Where two headings read alike, the source gives them in different places.

How the values were obtained:
[1] = tested on: KB (epidermoid carcinoma of the nasopharynx); test: Antiproliferative SRB assay, KB; format: cell-based, human
[2] = tested on: KB-vin (vincristine-resistant KB subline); test: Antiproliferative SRB assay, KB-vin; format: cell-based, human
[3] = tested on: Mer TK; settings: cited from earlier work
[4] = tested on: A549 (human lung carcinoma); test: Antiproliferative SRB assay, A549; format: cell-based; settings: A549, read-out: GI50 A549
[5] = tested on: DU145 (prostate cancer); test: Antiproliferative SRB assay, DU145; format: cell-based; settings: Homo sapiens, DU-145, read-out: GI50 DU145
[6] = paclitaxel reference, values in nM

SMILES: N#Cc1ccc(Nc2nc(NC3CCCC3)c3ccccc3n2)cc1 [6a, 2-(4-Cyanophenyl)amino-4-(N-cyclopentyl)aminoquinazoline]
- GI50 KB ([1]; SRB): >31300 nM
- GI50 KB-vin ([2]; SRB): >31300 nM

SMILES: Nc1ccc(Nc2nc(NCCCO)c3ccccc3n2)cc1 [7b]
- GI50 KB ([1]; SRB): 19700 nM
- GI50 KB-vin ([2]; SRB): 18700 nM

SMILES: OCCCNc1nc(Nc2ccc(F)cc2)nc2ccccc12 [7c, 2-(4-Fluorophenyl)amino-4-(3-hydroxypropyl)aminoquinazoline]
- GI50 KB ([1]; SRB): 17100 nM
- GI50 KB-vin ([2]; SRB): 24200 nM

SMILES: CC(C)n1cnc2/c(=N/c3cccc(Cl)c3)nc(NCCO)[nH]c21 [C-52]
- Mer inhibitory potency ([3]; literature Mer inhibitors): weak

SMILES: CC(=O)O[C@H]1C(=O)[C@@]2(C)[C@H]([C@H](OC(=O)c3ccccc3)[C@]3(O)C[C@H](OC(=O)[C@H](O)[C@@H](NC(=O)c4ccccc4)c4ccccc4)C(C)=C1C3(C)C)[C@]1(OC(C)=O)CO[C@@H]1C[C@@H]2O [Paclitaxel]
- GI50 [4]: 0.0049 µM
- GI50 KB [1, 6]: 2.6 nM
- GI50 KB-vin [2, 6]: 948 nM
- GI50 [5]: 0.0026 µM

SMILES: CCCCNc1ncc2c(-c3ccc(F)cc3)nn(CC3CCC(N)CC3)c2n1 (stereo not shown) [UNC569]
- Mer inhibitory potency [3]: subnanomolar

SMILES: CCCCNc1ncc(C(=O)NCc2ccc(-n3ccnc3)cc2)c(NC2CCC(O)CC2)n1 (stereo not shown) [UNC2881]
- Mer inhibitory potency [3]: subnanomolar
